# From BindingDB's records for doi:10.1021/jm9608523 (Merck Sharp & Dohme Research Laboratories, 1997)
# Target: Gastrin/cholecystokinin type B receptor (Cavia porcellus)
# Experiment: Inhibition of ligand binding to Cholecystokinin type B receptor from guinea pig cortical membrane.
row,SMILES,IC50 [nM]
1,"CCCN1C(=O)[C@H](NC(=O)Nc2cccc(C)c2)N=C([C@H]2CCCCN2)c2ccccc21 [1-((R)-2-Oxo-5-(R)-piperidin-2-yl-1-propyl-2,3-dihydro-1H-benzo[e][1,4]diazepin-3-yl)-3-m-tolyl-urea]",36
2,"CCCN1C(=O)[C@H](NC(=O)Nc2cccc(C)c2)N=C([C@@H]2CCCCN2)c2ccccc21 [1-((R)-2-Oxo-5-(S)-piperidin-2-yl-1-propyl-2,3-dihydro-1H-benzo[e][1,4]diazepin-3-yl)-3-m-tolyl-urea]",41
3,"CCCN1C(=O)[C@H](NC(=O)Nc2cccc(C)c2)N=C([C@H]2CCC(C)(C)CCN2C)c2ccccc21 [1-[(R)-2-Oxo-1-propyl-5-((R)-1,5,5-trimethyl-azepan-2-yl)-2,3-dihydro-1H-benzo[e][1,4]diazepin-3-yl]-3-m-tolyl-urea]",26
4,"CCCN1C(=O)[C@H](NC(=O)Nc2cccc(C)c2)N=C([C@H]2CCCCN2C)c2ccccc21 [1-[(R)-5-((R)-1-Methyl-piperidin-2-yl)-2-oxo-1-propyl-2,3-dihydro-1H-benzo[e][1,4]diazepin-3-yl]-3-m-tolyl-urea]",54
5,"CCCN1C(=O)[C@H](NC(=O)Nc2cccc(C)c2)N=C([C@H]2CC(C)(C)CCN2)c2ccccc21 [1-[(R)-5-((R)-4,4-Dimethyl-piperidin-2-yl)-2-oxo-1-propyl-2,3-dihydro-1H-benzo[e][1,4]diazepin-3-yl]-3-m-tolyl-urea]",1.5
6,"Cc1cccc(NC(=O)N[C@@H]2N=C([C@H]3CCC(C)(C)CCN3)c3ccccc3N(C)C2=O)c1 [1-[(R)-5-((R)-5,5-Dimethyl-azepan-2-yl)-1-methyl-2-oxo-2,3-dihydro-1H-benzo[e][1,4]diazepin-3-yl]-3-m-tolyl-urea]",12
7,"CCN(CC)C(=O)CN1C(=O)[C@H](NC(=O)Nc2cccc(C)c2)N=C(c2cccc[n+]2C)c2ccccc21 [2-[(R)-1-Diethylcarbamoylmethyl-2-oxo-3-(3-m-tolyl-ureido)-2,3-dihydro-1H-benzo[e][1,4]diazepin-5-yl]-1-methyl-pyridinium; iodide]",18
